US11077100B2, “Tetrahydroquinoline derivatives as P2X7 receptor antagonists” (RaQualia Pharma Inc., priority 2017, dated 2021)

How the values were obtained:
human P2X7 = human P2X7 (Homo sapiens (Human), UniProt Q99572); test: Human P2X7 functional assay (Ca2+ influx, Fluo-4, FDSS); type: cell-based; conditions: antagonistic activity with respect to the human P2X7 receptor; BzATP final concentration 80 microM
Summary of the method: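 HEK293 cells stably expressing C-terminally FLAG-tagged human P2X7, loaded with Fluo-4. Compounds were preincubated for 10 min at room temperature, then 80 μM BzATP (final) was added and Ca2+ fluorescence read at 540 nm (480 nm excitation) by FDSS. IC50 values come from 7-point curves, duplicate wells.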

rat P2X7 = rat P2X7 (Rattus norvegicus (Rat), UniProt Q64663); test: Rat P2X7 functional assay (Ca2+ influx, Fluo-4, FDSS); type: cell-based; conditions: HEK293 cells stably expressing rat P2X7; BzATP final 10 microM; 7-point dose-response; read-out: Antagonistic activities with respect to the rat P2X7 receptor (IC50)
rat P2X7, sequence (Q64663 whole entry): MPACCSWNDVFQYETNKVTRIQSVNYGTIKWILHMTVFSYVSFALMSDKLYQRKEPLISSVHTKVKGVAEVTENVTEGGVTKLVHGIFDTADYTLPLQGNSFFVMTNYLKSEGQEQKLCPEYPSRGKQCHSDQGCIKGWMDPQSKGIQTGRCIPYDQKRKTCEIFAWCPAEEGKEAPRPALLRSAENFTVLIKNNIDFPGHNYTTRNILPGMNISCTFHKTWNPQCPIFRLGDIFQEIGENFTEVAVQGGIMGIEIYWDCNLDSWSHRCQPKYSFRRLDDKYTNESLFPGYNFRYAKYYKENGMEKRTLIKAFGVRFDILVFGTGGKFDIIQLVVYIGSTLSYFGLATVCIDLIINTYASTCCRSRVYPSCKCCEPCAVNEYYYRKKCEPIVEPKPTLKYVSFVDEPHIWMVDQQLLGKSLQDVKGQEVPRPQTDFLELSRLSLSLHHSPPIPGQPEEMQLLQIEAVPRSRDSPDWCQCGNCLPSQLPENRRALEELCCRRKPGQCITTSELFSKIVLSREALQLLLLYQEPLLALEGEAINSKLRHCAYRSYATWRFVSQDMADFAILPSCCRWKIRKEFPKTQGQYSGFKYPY
Summary of the method: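 HEK293 cells stably expressing rat P2X7 (5,000/well, plated 24 h before) loaded with Fluo-4; compounds preincubated 10 min at room temperature, then Ca2+ rise after 10 microM BzATP (final) read on FDSS (480/540 nm). IC50 from 7-point curves, duplicate wells.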

human P2X7, sequence (Q99572 whole entry): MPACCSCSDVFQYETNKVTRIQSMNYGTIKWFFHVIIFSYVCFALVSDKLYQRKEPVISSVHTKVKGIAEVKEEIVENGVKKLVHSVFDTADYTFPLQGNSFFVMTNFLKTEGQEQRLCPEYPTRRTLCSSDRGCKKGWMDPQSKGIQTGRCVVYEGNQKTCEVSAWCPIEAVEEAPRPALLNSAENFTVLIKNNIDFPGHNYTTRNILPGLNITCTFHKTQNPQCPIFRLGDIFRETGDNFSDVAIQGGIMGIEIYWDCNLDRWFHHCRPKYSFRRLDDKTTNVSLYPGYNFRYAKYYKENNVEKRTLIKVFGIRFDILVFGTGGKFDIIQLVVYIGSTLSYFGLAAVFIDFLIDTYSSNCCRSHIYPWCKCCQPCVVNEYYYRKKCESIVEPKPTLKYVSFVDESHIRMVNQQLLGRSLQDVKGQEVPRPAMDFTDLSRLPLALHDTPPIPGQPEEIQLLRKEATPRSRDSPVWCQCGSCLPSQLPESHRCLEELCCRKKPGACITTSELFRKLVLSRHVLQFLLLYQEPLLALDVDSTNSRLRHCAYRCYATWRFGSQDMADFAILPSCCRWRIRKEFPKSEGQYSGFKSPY

O=C1NC[C@@]2(CC[C@@](F)(C(=O)NCc3ccc(Cl)cc3Cl)c3cccnc32)O1 [Example 292, (5R,5′S)-N-(2,4-dichlorobenzyl)-5′-fluoro-2-oxo-6′,7′-dihydro-5′H-spiro [oxazolidine-5,8′-quinoline]-5′-carboxamide]
IC50 (human P2X7): 50 to 100 nM
IC50 (rat P2X7): < 1000 nM

O=C(NCC(c1ccc(Cl)cc1)N1CCC(F)(F)CC1)[C@]1(F)CC[C@H](O)c2ncccc21 (stereo partly drawn) [Example 232, (5S,8S)-N-(2-(4-chlorophenyl)-2-(4,4-difluoropiperidin-1-yl)ethyl)-5-fluoro-8-hydroxy-5,6,7,8-tetrahydroquinoline-5-carboxamide]
IC50 (human P2X7): < 50 nM
IC50 (rat P2X7): < 1000 nM

O=C(NCc1ccc(F)cc1Cl)[C@@]1(F)CC[C@@H](O)c2ncccc21 [Example 134, (5R,8R)-N-(2-chloro-4-fluorobenzyl)-5-fluoro-8-hydroxy-5,6,7,8-tetrahydroquinoline-5-carboxamide]
IC50 (human P2X7): 101 to 300 nM
IC50 (rat P2X7): < 1000 nM

O=C(NCc1cccc(Cl)c1Cl)C1CC(O)c2ncccc21 (centres unmarked) [Example 28, N-(2,3-dichlorobenzyl)-7-hydroxy-6,7-dihydro-5H-cyclo-penta[b]pyridine-5-carboxamide]
IC50 (human P2X7): 50 to 100 nM
IC50 (rat P2X7): < 1000 nM

CS(=O)(=O)C[C@]1(O)CC[C@@](F)(C(=O)NCc2ccc(F)cc2Cl)c2cccnc21 [Example 299, (5S,8S)-N-(2-chloro-4-fluorobenzyl)-5-fluoro-8-hydroxy-8-((methylsulfonyl)methyl)-5,6,7,8-tetrahydroquinoline-5-carboxamide]
IC50 (human P2X7): 101 to 300 nM
IC50 (rat P2X7): < 1000 nM

O=C(NCc1ncc(Cl)cc1Cl)[C@]1(F)CC[C@@](O)(CO)c2ncccc21 [Example 329, (5S,8S)-N-((3,5-dichloropyridin-2-yl)methyl)-5-fluoro-8-hydroxy-8-(hydroxymethyl)-5,8,7,8-tetrahydroquinoline-5-carboxamide]
IC50 (human P2X7): 50 to 100 nM
IC50 (rat P2X7): < 1000 nM

O=C(NCc1ccc(Br)cc1Cl)[C@@]1(F)CC[C@@H](O)c2ncccc21 [Example 153, (5R,8R)-N-(4-bromo-2-chlorobenzyl)-5-fluoro-8-hydroxy-5,6,7,8-tetrahydroquinoline-5-carboxamide]
IC50 (human P2X7): < 50 nM
IC50 (rat P2X7): < 1000 nM

Cc1cc(Cl)cc(Cl)c1CNC(=O)C1(F)CCC(O)c2ncccc21 (centres unmarked) [Example 18, N-(2,4-dichloro-6-methyl-benzyl)-5-fluoro-8-hydroxy-5,6,7,8-tetrahydroquinoline-5-carboxamide]
IC50 (human P2X7): < 50 nM
IC50 (rat P2X7): < 1000 nM

COC[C@]1(O)CC[C@@](F)(C(=O)NCc2ccc(F)cc2Cl)c2cccnc21 (relative stereo) [Example 42, (5S*,8S*)-N-(2-chloro-4-fluoro-benzyl)-5-fluoro-8-hydroxy-8-(methoxymethyl)-5,6,7,8-tetra-hydroquinoline-5-carboxamide]
IC50 (human P2X7): < 50 nM
IC50 (rat P2X7): < 1000 nM

O=C(NCc1c(Cl)cc(Cl)cc1CO)[C@]1(F)CC[C@H](O)c2ncccc21 [Example 131, (5S,8S)-N-(2,4-dichloro-6-(hydroxymethyl)benzyl)-5-fluoro-8-hydroxy-5,6,7,8-tetrahydroquinoline-5-carboxamide]
IC50 (human P2X7): < 50 nM
IC50 (rat P2X7): < 1000 nM

CNCC1(O)CCC(F)(C(=O)NCc2cccc(C(F)(F)F)c2Cl)c2cccnc21 (centres unmarked) [Example 49, N-(2-chloro-3-(trifluorometh-yl)benzyl)-5-fluoro-8-hydroxy-8-((methylamino)meth-yl)-5,6,7,8-tetrahydroquinoline-5-carboxamide]
IC50 (human P2X7): < 50 nM
IC50 (rat P2X7): < 1000 nM

Cc1cc(Cl)cc(Cl)c1CNC(=O)[C@@H]1CC[C@@H](O)c2ncccc21 [Example 84, (5R,8R)-N-(2,4-dichloro-6-methylbenzyl)-8-hy-droxy-5,6,7,8-tetrahydro-quinoline-5-carboxamide]
IC50 (human P2X7): < 50 nM
IC50 (rat P2X7): < 1000 nM

O=C(NCc1c(Cl)cc(Cl)cc1CO)[C@]1(F)CC[C@@H](O)c2ncccc21 [Example 104]
IC50 (human P2X7): < 50 nM
IC50 (rat P2X7): < 1000 nM

C[C@]1(O)CC[C@@](F)(C(=O)NCc2ccc(F)cc2Cl)c2cccnc21 [Example 259, (5S,8S)-N-(2-chloro-4-fluorobenzyl)-5-fluoro-8-hydroxy-8-methyl-5,6,7,8-tetrahydroquinoline-5-carboxamide]
IC50 (human P2X7): < 50 nM
IC50 (rat P2X7): < 1000 nM

O=C(NCc1cccc(Cl)c1Cl)C1CCC(O)c2ncccc21 (centres unmarked) [Example 8, N-(2,3-dichlorobenzyl)-8-hydroxy-5,6,7,8-tetra hydroquinoline-5-carboxamide]
IC50 (human P2X7): < 50 nM
IC50 (rat P2X7): < 1000 nM

O=C(N[C@@H]1CCc2ccccc21)[C@]1(F)CC[C@H](O)c2ncccc21 [Example 196, (5S,8S)-N-((R)-2,3-dihydro-1H-inden-1-yl)-5-fluoro-8-hydroxy-5,6,7,8-tetrahydroquinoline-5-carboxamide]
IC50 (human P2X7): < 50 nM
IC50 (rat P2X7): < 1000 nM

O=C(NCc1ccc(Cl)cc1Cl)C1(F)CCC(O)(CO)c2ncccc21 (centres unmarked) [Example 37, N-(2,4-dichlorobenzyl)-5-fluoro-8-hy-droxy-8-(hydroxymethyl)-5,6,7,8-tetra-hydroquinoline-5-carboxamide]
IC50 (human P2X7): < 50 nM
IC50 (rat P2X7): < 1000 nM

Cc1cc(Cl)cc(Cl)c1CNC(=O)C1(F)CCC(O)(CO)c2ncccc21 (centres unmarked) [Example 34, N-(2,4-dichloro-6-methylbenzyl)-5-fluoro-8-hydroxy-8-(hydroxymethyl)-5,6,7,8-tetrahydroquinoline-5-carboxamide]
IC50 (human P2X7): < 50 nM
IC50 (rat P2X7): < 1000 nM

O=C1COC[C@]2(CC[C@@](F)(C(=O)NCc3ccc(Cl)cc3Cl)c3cccnc32)N1 (relative stereo) [Example 61, (3R*,5′S*)-N-(2,4-dichlorobenzyl)-5′-fluoro-5-oxo-6′,7′-dihydro-5′H-spiro[morpholine-3,8′-quinoline]-5′-carboxamide]
IC50 (human P2X7): < 50 nM
IC50 (rat P2X7): < 1000 nM

O=C(NCc1ccc(Cl)cc1F)[C@]1(F)CC[C@@](O)(CO)c2ncccc21 [Example 314, (5S,8S)-N-(4-chloro-2-fluorobenzyl)-5-fluoro-8-hydroxy-8-(hydroxymethyl)-5,6,7,8-tetrahydroquinoline-5-carboxamide]
IC50 (human P2X7): 101 to 300 nM
IC50 (rat P2X7): < 1000 nM

Cc1ccc(F)c(CNC(=O)[C@]2(F)CC[C@H](O)c3ncccc32)c1Cl [Example 142, (5S,8S)-N-(2-chloro-6-fluoro-3-methylbenzyl)-5-fluoro-8-hydroxy-5,6,7,8-tetrahydroquinoline-5-carboxamide]
IC50 (human P2X7): < 50 nM
IC50 (rat P2X7): < 1000 nM

O=C(NCc1cccc(F)c1F)[C@]1(F)CC[C@H](O)c2ncccc21 [Example 208, (5S,8S)-N-(2,3-difluorobenzyl)-5-fluoro-8-hydroxy-5,6,7,8-tetrahydroquinoline-5-carboxamide]
IC50 (human P2X7): 101 to 300 nM
IC50 (rat P2X7): < 1000 nM

O=C(NCc1ccc(F)cc1F)[C@]1(F)CC[C@@](O)(CO)c2ncccc21 [Example 318, (5S,8S)-N-(2,4-difluorobenzyl)-5-fluoro-8-hydroxy-8-(hydroxymethyl)-5,6,7,8-tetrahydroquinoline-5-carboxamide]
IC50 (human P2X7): 301 to 1000 nM
IC50 (rat P2X7): < 1000 nM

O=C(NCc1ccc(F)c(F)c1Cl)[C@]1(F)CC[C@](O)(CO)c2ncccc21 [Example 313, (5S,8R)-N-(2-chloro-3,4-difluorobenzyl)-5-fluoro-8-hydroxy-8-(hydroxymethyl)-5,6,7,8-tetrahydroquinoline-5-carboxamide]
IC50 (human P2X7): 50 to 100 nM
IC50 (rat P2X7): < 1000 nM

O=C(NCc1ccc(Cl)cc1Cl)[C@@]1(F)CC[C@](O)(CN2CC(O)C2)c2ncccc21 [Example 279, (5R,8S)-N-(2,4-dichlorobenzyl)-5-fluoro-8-hydroxy-8-((3-hydroxyazetidin-1-yl)methyl)-5,6,7,8-tetrahydroquinoline-5-carboxamide]
IC50 (human P2X7): < 50 nM
IC50 (rat P2X7): < 1000 nM

O=C(NCc1ccc(F)c(F)c1F)[C@]1(F)CC[C@@H](O)c2ncccc21 [Example 108, (5S,8R)-5-fluoro-8-hydroxy-N-(2,3,4-trifluorobenzyl)-5,6,7,8-tetrahydroquinoline-5-carboxamide]
IC50 (human P2X7): 301 to 1000 nM
IC50 (rat P2X7): < 1000 nM

O=C(NCc1cccc(C(F)(F)F)c1Cl)[C@]1(F)CC[C@H](O)c2ncccc21 [Example 129, (5S,8S)-N-(2-chloro-3-(trifluoromethyl)benzyl)-5-fluoro-8-hydroxy-5,6,7,8-tetrahydroquinoline-5-carboxamide]
IC50 (human P2X7): < 50 nM
IC50 (rat P2X7): < 1000 nM

O=C1CCC(F)(C(=O)NCc2c(Cl)cc(Cl)cc2CO)c2cccnc21 (centres unmarked) [Example 14, N-(2,4-dichloro-6-(hydroxymethyl)benzyl)-5-fluoro-8-oxo-5,6,7,8-tetrahydro-quinoline-5-carboxamide]
IC50 (human P2X7): < 50 nM
IC50 (rat P2X7): < 1000 nM

O=C1CCC(C(=O)NCc2cccc(C(F)(F)F)c2Cl)c2cccnc21 (centres unmarked) [Example 2, N-(2-chloro-3-(trifluoromethyl)benzyl)-8-oxo-5,6,7,8-tetrahydroquinoline-5-carboxamide]
IC50 (human P2X7): < 50 nM
IC50 (rat P2X7): < 1000 nM

N#CC[C@]1(O)CC[C@@](F)(C(=O)NCc2ccc(Cl)cc2Cl)c2cccnc21 [Example 280, (5S,8R)-8-(cyanomethyl)-N-(2,4-dichlorobenzyl)-5-fluoro-8-hydroxy-5,6,7,8-tetrahydroquinoline-5-carboxamide]
IC50 (human P2X7): < 50 nM
IC50 (rat P2X7): < 1000 nM

O=C(NCc1ccc(Cl)cc1Cl)[C@]1(F)CC[C@H](OCC(O)CO)c2ncccc21 (stereo partly drawn) [Example 349, (5S,8S)—N-(2,4-dichlorobenzyl)-8-(2,3-dihydroxypropoxy)-5-fluoro-5,6,7,8-tetrahydroquinoline-5-carboxamide]
IC50 (human P2X7): < 50 nM
IC50 (rat P2X7): < 1000 nM
